Experimental data published in patent US20250288571A1 (Nested Therapeutics, Inc., priority 2024, published 2025).
“And” between values parts separate entries of the source, which are not always exact repeats. Equal values may be shown once. Read-outs that look alike come from different tables or passages of the source.

Columns and labels:
HCT116 cells = assay: HCT116 Cell Titer Glow assay (CTG); conditions: for viability at 1000 µM: read-out: CTG % cell viability 1000 uM HCT116.20, HCT116 cells, 72 hours, 1000 uM; for viability at 1000 µM / CTG % cell viability 1000 uM HCT116.20: percent cells remaining after treatment; for IC50: read-out: CTG IC50 (nM) Cell Line: HCT116.20
Method: HCT116 and IPC298 Cell Titer Glow Assay (CTG)
HCT116 cells and IPC298 cells were diluted with culture medium to the desired density 500 cells/well and 40 μL of cell suspension were added into each well of 384-well cell culture plate. […] The plates were covered and stored at room temperature for 30 minutes without shaking and then the plates were transferred into a 37° C. 5% CO2 incubator overnight.
A 10 mM solution in dimethyl sulfoxide (DMSO) was prepared for each test compound. A 3 fold, 10-point dilution was prepared from the stock solution. 40 nl of each solution in 100% DMSO was added to the 384-well plate and diluted to a final 0.1% DMSO final concentration. The plates were then incubated for 72 hours (for both cell lines) at 37° C.
CellTiter-Glo® 2.0 Reagent (Promega, G9242) was removed from the refrigerator and equilibrated at room temperature (23° C.) for 60 minutes. The plates were then removed from the incubator and allowed to equilibrate to room temperature. 30 μL CellTiter-Glo® 2.0 Reagent were added to the assay plates, and spun 1 min/1000 rpm. The plates were allowed to stand for about 20 minutes before being read on Envision using a standard luminescence readout. DMSO was employed as negative control (High control, HC) and 1 uM Staurosporine was employed as positive control (Low control, LC).
The percent (%) inhibition at each concentration of compound was calculated based on the signal in the negative and positive control wells contained within each assay plate.

IPC298 cells = assay: IPC298 Cell Titer Glow assay (CTG); conditions: for viability at 100 µM: read-out: CTG % cell viability 100 uM IPC298.2, IPC298 cells, 72 hours, 100 uM; for IC50: read-out: CTG IC50 (nM) Cell Line: IPC298.2
[1] = Homo sapiens, IPC-298, 72 h, percent cells remaining after treatment

| SMILES | viability at 1000 µM (HCT116 cells; Homo sapiens, HCT-116, 72 h) [%] | IC50 (HCT116 cells; Homo sapiens, HCT-116, 72 h) [nM] | IC50 (IPC298 cells; Homo sapiens, IPC-298, 72 h) [nM] | also measured |
| --- | --- | --- | --- | --- |
| CNS(=O)(=O)Nc1nccc(Cc2cncc(OC3CCC(C)CC3)c2C)c1F (single isomer, unassigned) [Example 74, 3-fluoro-4-[[4-methyl-5-(4-methylcyclohexoxy)-3-pyridyl]methyl]-N-(methylsulfamoyl)pyridin-2-amine] | 92.9 | > 1000 | > 1000 | viability at 100 µM (IPC298 cells; [1]): 88.6% |
| CNS(=O)(=O)N1CCc2c(Cc3cncc(Nc4ccc(Cl)cc4F)c3C)ccnc21 [Example 43, 4-({5-[(4-chloro-2-fluorophenyl)amino]-4-methylpyridin-3-yl}methyl)-N-methyl-2H,3H-pyrrolo[2,3-b]pyridine-1-sulfonamide] | – | 10 to 100 | < 10 | – |
| CNS(=O)(=O)Nc1nccc(Cc2cncc(-c3ccc(Cl)cc3F)c2C)c1F [Example 44, [(4-{[5-(4-chloro-2-fluorophenyl)-4-methylpyridin-3-yl]methyl}-3-fluoropyridin-2-yl)sulfamoyl](methyl)amine] | 28 | > 1000 | 10 to 100 | – |
| CNS(=O)(=O)Nc1nccc(Cc2cncc(Nc3ccc(Cl)cc3F)c2C)c1OC [Example 45, 4-[[5-(4-chloro-2-fluoro-anilino)-4-methyl-3-pyridyl]methyl]-3-methoxy-N-(methylsulfamoyl)pyridin-2-amine] | – | 10 to 100 | – | – |
| CNS(=O)(=O)Nc1ccc(Cc2cncc(Oc3ncc(Cl)cc3F)c2C)cn1 [Example 46, 5-[[5-[(5-chloro-3-fluoro-2-pyridyl)oxy]-4-methyl-3-pyridyl]methyl]-N-(methylsulfamoyl)pyridin-2-amine] | – | > 1000 | > 1000 | CTG % cell viability 1000 uM HCT116.20 (HCT116 cells; HCT116 cells, 72 hours): 82.81, % and 79.54%; CTG % cell viability 1000 uM IPC298.2 (IPC298 cells; IPC298 cells, 72 hours, 1000 uM, percent cells remaining after treatment): 19.34% |
| CNS(=O)(=O)Nc1nccc(Cc2cncc(Nc3ccc(C4CC4)cc3F)c2C)c1F [Example 47, 4-[[5-(4-cyclopropyl-2-fluoro-anilino)-4-methyl-3-pyridyl]methyl]-3-fluoro-N-(methylsulfamoyl)pyridin-2-amine] | – | < 10 | < 10 | – |
| CNS(=O)(=O)Nc1ccc(Cc2cncc(Oc3ncc(Cl)cc3F)c2C)cn1 [Example 48, 5-[[5-[(5-chloro-3-fluoro-2-pyridyl)oxy]-4-methyl-3-pyridyl]methyl]-N-(methylsulfamoyl)pyridin-2-amine] | – | – | – | CTG % cell viability 1000 uM HCT116.20 (HCT116 cells; HCT116 cells, 72 hours): 17.49%; IC50 (HCT116 cells; HCT116 cells, 72 hours): > 1000 nM; IC50 (IPC298 cells; IPC298 cells, 72 hours): > 1000 nM |
| CNS(=O)(=O)Nc1nccc(Cc2cncc(Oc3ccc(Cl)cc3F)c2C)c1F [Example 49, [(4-{[5-(4-chloro-2-fluorophenoxy)-4-methylpyridin-3-yl]methyl}-3-fluoropyridin-2-yl)sulfamoyl](methyl)amine] | – | 10 to 100 | < 10 | – |
| CNS(=O)(=O)Nc1nccc(Cc2cncc(Cc3ccc(Cl)cc3F)c2C)c1F [Example 50, {[4-({5-[(4-chloro-2-fluorophenyl)methyl]-4-methylpyridin-3-yl}methyl)-3-fluoropyridin-2-yl]sulfamoyl}(methyl)amine] | – | 500 to 1000 | 10 to 100 | – |
| CNS(=O)(=O)Nc1nccc(Cc2cncc(Oc3ccc(C(F)(F)F)cc3F)c2C)c1F [Example 51, 3-fluoro-4-[[5-[2-fluoro-4-(trifluoromethyl)phenoxy]-4-methyl-3-pyridyl]methyl]-N-(methylsulfamoyl)pyridin-2-amine] | – | 100 to 500 | – | – |
| CNS(=O)(=O)Nc1nccc(Cc2cnnc(Nc3ccc(Cl)cc3F)c2C)c1F [Example 52, N-(4-chloro-2-fluoro-phenyl)-5-[[3-fluoro-2-(methylsulfamoylamino)-4-pyridyl]methyl]-4-methyl-pyridazin-3-amine] | – | 100 to 500 | < 10 | – |
| CNS(=O)(=O)Nc1nccc(Cc2cncc(Nc3ccc(Cl)cc3F)c2C)n1 [Example 53, 4-[[5-(4-chloro-2-fluoro-anilino)-4-methyl-3-pyridyl]methyl]-N-(methylsulfamoyl)pyrimidin-2-amine] | – | 10 to 100 | – | – |
| CNS(=O)(=O)Nc1nccc(Cc2cncc(Oc3cccc(Cl)c3F)c2)c1F [Example 54, 4-[[5-(3-chloro-2-fluoro-phenoxy)-3-pyridyl]methyl]-3-fluoro-N-(methylsulfamoyl)pyridin-2-amine] | 81.2 | > 1000 | > 1000 | viability at 1000 µM (IPC298 cells; Homo sapiens, IPC-298, 72 h, read-out: CTG % cell viability 1000 uM IPC298.2, IPC298 cells, 72 hours, 1000 uM, percent cells remaining after treatment): 70.1% |
| CNS(=O)(=O)Nc1nccc(Cc2cncc(Nc3ncccn3)c2C)c1F [Example 55, N-[5-[[3-fluoro-2-(methylsulfamoylamino)-4-pyridyl]methyl]-4-methyl-3-pyridyl]pyrimidin-2-amine] | 80.9 | > 1000 | – | – |
| CNS(=O)(=O)Nc1nccc(Cc2cncc(-c3cc(Cl)ccc3F)c2C)c1F [Example 56, [(4-{[5-(5-chloro-2-fluorophenyl)-4-methylpyridin-3-yl]methyl}-3-fluoropyridin-2-yl)sulfamoyl](methyl)amine] | – | 100 to 500 | < 10 | – |
| CNS(=O)(=O)Nc1nccc(Cc2cncc(-c3cccc(Cl)c3F)c2C)c1F [Example 57, [(4-{[5-(3-chloro-2-fluorophenyl)-4-methylpyridin-3-yl]methyl}-3-fluoropyridin-2-yl)sulfamoyl](methyl)amine] | 56.8 | > 1000 | 10 to 100 | CTG % cell viability 1000 uM HCT116.20 (HCT116 cells; HCT116 cells, 72 hours): 45.51% |
| CNS(=O)(=O)Nc1nccc(Cc2cncc(Nc3ccc(C(C)C)cc3F)c2C)c1F [Example 58, 3-fluoro-4-[[5-(2-fluoro-4-isopropyl-anilino)-4-methyl-3-pyridyl]methyl]-N-(methylsulfamoyl)pyridin-2-amine] | – | < 10 | < 10 | – |
| CNS(=O)(=O)Nc1nccc(Cc2cncc(-n3ccc4cc(Cl)ccc43)c2)c1F [Example 59, [(4-{[5-(5-chloroindol-1-yl)pyridin-3-yl]methyl}-3-fluoropyridin-2-yl)sulfamoyl](methyl)amine] | – | 100 to 500 | 10 to 100 | – |
| C#Cc1cnc(Nc2cncc(Cc3ccnc(NS(=O)(=O)NC)c3F)c2C)c(F)c1 [Example 60, 4-[[5-[(5-ethynyl-3-fluoro-2-pyridyl)amino]-4-methyl-3-pyridyl]methyl]-3-fluoro-N-(methylsulfamoyl)pyridin-2-amine] | – | 100 to 500 | < 10 | – |
| CNS(=O)(=O)Nc1nccc(Cc2cncc(Nc3ncc(Cl)cc3F)c2C)c1F [Example 62, 4-[[5-[(5-chloro-3-fluoro-2-pyridyl)amino]-4-methyl-3-pyridyl]methyl]-3-fluoro-N-(methylsulfamoyl)pyridin-2-amine] | 46.4 | > 1000 | 10 to 100 | – |
| CNS(=O)(=O)Nc1nccc(Cc2cncc(O[C@H]3CC[C@H](C)CC3)c2C)c1F [Example 63, 3-fluoro-4-[[4-methyl-5-(4-methylcyclohexoxy)-3-pyridyl]methyl]-N-(methylsulfamoyl)pyridin-2-amine] | 71.5 | > 1000 | > 1000 | viability at 100 µM (IPC298 cells; [1]): 62.4% |
| CNS(=O)(=O)Nc1nccc(Cc2cncc(Oc3ccc(C(F)F)cc3F)c2C)c1F [Example 65, 4-[[5-[4-(difluoromethyl)-2-fluoro-phenoxy]-4-methyl-3-pyridyl]methyl]-3-fluoro-N-(methylsulfamoyl)pyridin-2-amine] | – | 10 to 100 | < 10 | – |
